Values belong to the compound of their own block, whether it stands above or below them.
Assays:
Type in all cases: cell-based
[1] = system: TR and RAR (RARε plus TRα or TRβ); assay: Cotransfection CAT assay: TR and RARε together with TRE-CAT gene (G17-2 CAT) in F9 and CV-1 cells; details: only T3 added, TR and RAR cotransfected
Procedure: One possible implication of this finding is that certain genes should be inducible by either hormone (T3) or vitamin (RA) in cells containing both receptors. To zest this hypothesis and to investigate possible positive and/or negative interactions of TR and RAR, both receptors were cotransfected into the same cells together with a TRE-CAT gene. […] Approximately 70% of the maximal activity is observed when only T3 is added. […] In the absence of T3, TR prevents activation of TREs by RARs, while in the presence of T3, TR activates and also allows positive cooperativity with RAR. The dominating regulatory effect can be carried out by both TRα and TRβ on both the RARε (FIG. 9) and the F9 endogenous RAR. Significant repression of RARε activity in F9 cells is observed between RARε: TRα ratios of 1:1 to 4:1.
As shown in FIG. 9(a), 5 μg of PECE-RARε plus 5 μg of PECE-TRα were cotransfected together with 20 μg of G17-2 CAT into F9 cells. As a control, each receptor was also cotransfected with G17-2 CAT individually. Hormones were added as indicated. As shown in FIG. 9(b), 2.5 μg of PECE-TRβ plus 2.5 μg of PECE-RARε were cotransfected with 20 μg of G17-2 CAT into CV-1 cells. As a control, PECE-RARε was also cotransfected with G17-2 individually. Hormones were added as indicated. CAT activity was assayed as described in Example VI.

endogenous F9 cell RAR = assay: CAT assay: reporter plasmid only transfected into F9 cells (endogenous RAR); details: for induction of CAT activity: G17-2 construct alone
From the text: Two different TREs, one the natural myosin heavy chain (MHC) promoter TRE, Izumo, S., et al., Nature, 334, 539 (1988), and the other a synthetic TRE—G17-2—derived from the rat growth hormone promoter, Glass, C. K., et al., Cell, 54, 313-323 (1988), were chosen, both references are incorporated herein by reference. The estrogen responsive element (ERE) used here is derived from the vitellogenin gene, Klein-Hitpass, L., et al., Cell 46, 1053-1061 (1986). As a convenient assay system a cotransfection CAT assay (chloramphenicol transacetylase) was chosen. When. […] Upon induction, MHC and G17-2-TRE constructs yield very similar levels of CAT activity. However, the MHC-TRE-CAT gene is highly constitutive (high basal level activity) whereas the G17-2 construct functions as an ideal RA inducible gene in that we observe a low basal activity and a more than 30 fold induction of CAT activity by RA (FIG. 6a and b). Similar levels of induction were obtained with TRα. F9 cells have been established as a cellular model for RA dependent differentiation and to contain RAR transcripts. Whether the endogenous F9 RAR can also activate the TRE-CAT genes, by transfecting the […] into F9 cells alone was investigated. […] The high basal level observed with the MHC construct prevents observation of a clear induction effect by the endogenous RAR. […]
F9 cells were cotransfected with 5 μg of the expression vectors PECE-RARε or PECE-TRα and 20 μg of the reporter plasmids G17-2 CAT or MHC-CAT. […] Fold activation is expressed as the ratio of relative CAT activity after hormone induction to relative CAT activity without hormone induction. […]
2×10^6 F9 cells were cultured as monolayer on gelatin-coated dishes in alpha-MEM (GIBCO, Santa Clara, Calif.), supplemented by 20% fetal calf serum (FCS), glutamine: and nucleosides as described in Grover, A., et al., J. Cell Biol. 96, […] (1983) which is incorporated herein by reference. […] For accurate determinations of chloramphenicol acetylation, the separated reaction products were cut out from silica plates and quantified in a scintillation counter. […]

[2] = target: T1, RAER chimaeric protein (RARε with hER DNA-binding domain) (Homo sapiens, UniProt P10826, DEL77-136/INS76TNDKGSMAMESAKETRYCAVCNDYASGYHYGVWSCEGCKAFFKRSIQGHNDYMCPATNQCTIDKNRRKSCQAC); assay: Co-transfection CAT assay: RAER chimaeric receptor plus ERE-CAT reporter gene in HeLa cells; details: only at high concentrations (3×10^−6 M)
T1 construct: a 304 bp 5′ untranslated region, the complete open reading frame, and a 55 bp 3′ untranslated region; expressed in transfected cells; host or cells: HeLa cells, PECE-RAER expression vector
T1 sequence (P10826 with tags, fused parts or gaps isoform P10826-2): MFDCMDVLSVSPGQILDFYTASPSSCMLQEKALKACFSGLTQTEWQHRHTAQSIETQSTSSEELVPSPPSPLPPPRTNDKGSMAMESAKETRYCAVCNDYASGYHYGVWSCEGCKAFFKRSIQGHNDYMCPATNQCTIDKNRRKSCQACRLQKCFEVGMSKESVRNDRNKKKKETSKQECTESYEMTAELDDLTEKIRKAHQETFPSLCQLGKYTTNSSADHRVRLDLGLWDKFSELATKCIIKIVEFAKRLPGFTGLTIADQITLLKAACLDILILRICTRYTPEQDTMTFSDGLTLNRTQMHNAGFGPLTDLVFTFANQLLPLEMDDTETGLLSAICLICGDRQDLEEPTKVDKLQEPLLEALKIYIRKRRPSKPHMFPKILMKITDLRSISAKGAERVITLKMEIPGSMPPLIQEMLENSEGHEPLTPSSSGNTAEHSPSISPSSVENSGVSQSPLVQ
Procedure: The hybrid receptor was then transfected into susceptible tissue-culture cells together with a reporter gene containing the relevant HRE. The effect of various potential activators of the novel receptor was measured from cells transiently transfected with both genes and grown in the presence and absence of the various ligands.
As a control, cells were treated with calcium phosphate or were transfected with the constitutive pSV2CAT vector. As further controls, cells were also transfected with ERE-CAT and ERE-CAT plus the oestrogen receptor (ER) expression vector pckR2ER and grown in the presence of Est.
After 5 hours, cells were shocked with 10% glycerol for 2 min. Eighteen hours after the start of transfection, steroid hormones or retinoids were added to the medium and cells were incubated for a further 24 hours before harvesting.

SMILES: N[C@@H](Cc1cc(I)c(Oc2ccc(O)c(I)c2)c(I)c1)C(=O)O [T3]
CAT activity, percent of the maximal activity [1]: Approximately 70%
induction of CAT activity (endogenous F9 cell RAR; F9 cells, in the presence of T3): no induction

induction of CAT gene expression [2]: some inducing effect
SMILES: CC1=C(/C=C/C(C)=C/C=C/C(C)=C/C=O)C(C)(C)CCC1 [retinal]

SMILES: CC1=C(/C=C/C(C)=C/C=C/C(C)=C/C(=O)O)C(C)(C)CCC1 [retinoic acid]
induction of CAT activity (endogenous F9 cell RAR; endogenous F9 RAR, in the presence of RA): 12 fold
RA concentration at which TRE dependent CAT activity can be induced (endogenous F9 cell RAR; G17-2 construct, F9 RAR, RA tested between 3×10^−11 and 10^−6 M): ~0.1 nM

induction of CAT gene expression [2]: some inducing effect
SMILES: CC1=C(/C=C/C(C)=C/C=C/C(C)=C/CO)C(C)(C)CCC1 [retinol]
